Target: human recombinant 6His-Nterm SHP2 full-length (Thr2-Arg593) (Homo sapiens (Human), UniProt Q06124)
Experiment: SHP2 phosphatase assay (DiFMUP substrate, activating peptide)
Type: biochemical
Experimental: Inhibition of SHP2 phosphatase activity was evaluated using human recombinant 6His-Nterm (SEQ ID NO: 1) SHP2 full-length (Thr2-Arg593, R&D system), NsCs bi-phosphorylated activating peptide (NH2-LN(pY)AQLWHA(PEG8)LTI(pY)ATIRRF-Amide.acetate (SEQ ID NO: 2), Thermofischer Scientific) and DiFMUP as surrogate phosphatase substrate (Molecular Probes). All reactions were performed at room temperature in 384-well black polystyrene non-binding plate (Corning) with the assay buffer (50 mM HEPES-NaOH pH 7.2, 100 mM NaCl, 0.5 mM EDTA, 0.001% Brij35 including 0.02% BSA and 1 mM DTT added extemporaneously). SHP2 was pre-incubated at least 10 min with the activating peptide (0.2 nM and 100 nM, respectively). 10 μL of this mixture was added to the assay plate, that already contained 15 nL of the compound (1000-0.05 nM). After 30 min pre-incubation, the enzymatic reaction was initiated by the addition of 5 μL DiFMUP in assay buffer without BSA (20 μM). The reaction was stopped by the addition of 15 μL sodium pervanadate solution (100 μM) after 45 min incubation. The fluorescence signal was measured at excitation and emission wavelengths of 350 nm and 450 nm, respectively, using a Pherastar instrument (BMG-LabTech). Percentage of inhibition (I %) were calculated from the fluorescence signal at 450 nm of the positive and negative control using the following formula: […]
Positive control (Max): corresponds to the maximum fluorescence signal obtained in the presence of 15 nL DMSO replacing the inhibitor in the pre-incubation step.
Negative control (Min): corresponds to the minimum signal obtained in the presence of 1 μM of RMC-4550, the structure of which is shown below:
The IC50 were then calculated from a dose-response curve of 10 concentrations of tested compound using the 4-parameter logistic model:
The parameters A and (A+C) are the lower and upper limits, B is the slope of the curve at the inflexion point, M parameter is the logarithm of the abscissa at the inflexion point, and X is the concentration of compound.

[1] = full-length SHP2 0.2 nM pre-activated with bi-phosphorylated peptide 100 nM, DiFMUP 20 μM, 10-concentration dose-response

Chain of human recombinant 6His-Nterm SHP2 full-length (Thr2-Arg593) (Q06124 2-593): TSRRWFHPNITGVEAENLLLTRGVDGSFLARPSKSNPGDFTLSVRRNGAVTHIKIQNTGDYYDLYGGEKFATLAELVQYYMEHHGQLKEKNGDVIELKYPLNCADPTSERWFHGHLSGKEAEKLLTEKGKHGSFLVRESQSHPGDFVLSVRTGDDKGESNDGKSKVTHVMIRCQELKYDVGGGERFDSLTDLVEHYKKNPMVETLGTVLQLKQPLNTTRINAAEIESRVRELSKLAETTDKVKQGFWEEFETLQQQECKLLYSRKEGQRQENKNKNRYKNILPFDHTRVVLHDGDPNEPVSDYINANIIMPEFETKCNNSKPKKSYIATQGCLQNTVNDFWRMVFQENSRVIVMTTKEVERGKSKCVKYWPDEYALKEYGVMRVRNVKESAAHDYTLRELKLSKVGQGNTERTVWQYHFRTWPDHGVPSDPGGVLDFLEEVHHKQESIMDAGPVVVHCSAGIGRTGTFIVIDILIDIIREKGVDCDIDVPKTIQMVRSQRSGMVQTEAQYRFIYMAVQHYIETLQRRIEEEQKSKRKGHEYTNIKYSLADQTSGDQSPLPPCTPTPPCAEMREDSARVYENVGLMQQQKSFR

SMILES	IC50 (Table 11 summary) [nM]	IC50 [1] [nM]
COc1cc2c(cn1)CC1(CCN(c3nc(C)c(-c4cnn(C)c4C)n4nccc34)CC1)[C@@H]2N [Compound 132, (5S)-1′-[7-(1,5-dimethylpyrazol-4-yl)-6-methyl-pyrazolo[1,5-a]pyrazin-4-yl]-3-methoxy-spiro[5,7-dihydrocyclopenta[c]pyridine-6,4′-piperidine]-5-amine]	34	34
Cc1nc(N2CCC3(CC2)Cc2ncccc2[C@H]3N)c2c(CO)cnn2c1-c1ccccc1F [Compound 226, [4-[(5S)-5-aminospiro[5,7-dihydrocyclopenta[b]pyridine-6,4′-piperidine]-1′-yl]-7-(2-fluorophenyl)-6-methyl-pyrazolo[1,5-a]pyrazin-3-yl]methanol]	> 1000	> 1000
Cc1nc(N2CCC3(CC2)Cc2ccncc2[C@H]3N)c2ccnn2c1-c1cnn(C)c1C [Compound 133, (7S)-1′-[7-(1,5-dimethylpyrazol-4-yl)-6-methyl-pyrazolo[1,5-a]pyrazin-4-yl]spiro[5,7-dihydrocyclopenta[c]pyridine-6,4′-piperidine]-7-amine]	21	21
